Reference: ChEMBL document CHEMBL1938267, “Capturing of the free cysteine residue in the ligand-binding site by affinity labeling of the ORL1 nociceptin receptor” (Bioorg Med Chem, 2011)
Calls of active or inactive are those of the source. The calls are words filed in the database; no cut-off is given here. Peptide text beside a SMILES is read from it. * marks the point of attachment. Npys = O=[N+]([O-])c1cccnc1S*

Columns and labels:
[1] = species: Rattus norvegicus; assay: Agonist activity at rat Galpha-fused ORL1 receptor at 10 uM by [35S]GTPgammaS binding assay relative to nociceptin; assay type: functional
[2] = tested on: COS-7; assay: Displacement of [3H]nociceptin from rat Galpha-fused ORL1 receptor expressed in african green monkey COS7 cells preincubated with 100 uM N-ethylmaleimide for 90 mins measured after 90 mins; assay type: cell-based
[3] = tested on: COS-7; assay: Binding affinity to rat Galpha-fused ORL1 receptor expressed in african green monkey COS7 cells at 5 uM after 90 mins; assay type: cell-based
[4] = Binding affinity to rat Galpha-fused ORL1 receptor expressed in african green monkey COS7 cells after 90 mins; assay type: cell-based; settings: cos-7
[5] = tested on: COS-7; assay: Displacement of [3H]nociceptin from rat Galpha-fused ORL1 receptor expressed in african green monkey COS7 cells preincubated with 5 uM Cys(Npys)-RYYRIK-NH2 for 90 mins measured after 90 mins; assay type: cell-based
[6] = species: Rattus norvegicus; assay: Agonist activity at rat Galpha-fused ORL1 receptor by [35S]GTPgammaS binding assay relative to nociceptin; assay type: functional
[7] = tested on: COS-7; assay: Ratio of NEM EC50 to compound EC50 for binding affinity to rat Galpha-fused ORL1 receptor expressed in african green monkey COS7 cells; assay type: cell-based
[8] = Displacement of [3H]nociceptin from rat Galpha-fused ORL1 receptor expressed in african green monkey COS7 cells; assay type: cell-based; settings: cos-7
[9] = species: Rattus norvegicus; assay: Antagonist activity at rat Galpha-fused ORL1 receptor assessed as reduction of receptor agonist nociceptin-induced [35S]GTPgammaS binding at 10 uM; assay type: functional
[10] = tested on: COS-7; assay: Binding affinity to rat Galpha-fused ORL1 receptor expressed in african green monkey COS7 cells at 100 uM after 90 mins; assay type: cell-based

With CC[C@H](C)[C@H](NC(=O)[C@H](CCCN=C(N)N)NC(=O)[C@H](Cc1ccc(O)cc1)NC(=O)[C@H](Cc1ccc(O)cc1)NC(=O)[C@H](CCCN=C(N)N)NC(C)=O)C(=O)N[C@@H](CCCCN)C(N)=O the Activity [1] was 60% and the Activity [2] was “Active”.
CC[C@H](C)[C@H](NC(=O)[C@H](CCCNC(=N)N)NC(=O)[C@H](Cc1ccc(O)cc1)NC(=O)[C@H](Cc1ccc(O)cc1)NC(=O)[C@H](CCCNC(=N)N)NC(=O)[C@@H](N)CSSc1ncccc1[N+](=O)[O-])C(=O)N[C@@H](CCCCN)C(N)=O (H-C(Npys)RYYRIK-NH2) gave an Activity [1] of 5%, an Activity [3] of 60% and an EC50 [4] of 1900 nM. For the same molecule, the Activity [5] was “Active”, the Activity [6] was “inactive” and the Ratio EC50 [7] was 23. For the same molecule, the IC50 [8] was 133 nM and the Activity [9] was “Active”.
CCN1C(=O)C=CC1=O [N-ETHYLMALEIMIDE] gave an EC50 [4] of 43700 nM and an Activity [10] of 65%.
With CC(C)C[C@H](NC(=O)[C@H](CCCCN)NC(=O)[C@H](CCCNC(=N)N)NC(=O)[C@H](C)NC(=O)[C@H](CO)NC(=O)[C@H](CCCCN)NC(=O)[C@H](CCCNC(=N)N)NC(=O)[C@H](C)NC(=O)CNC(=O)[C@@H](NC(=O)[C@H](Cc1ccccc1)NC(=O)CNC(=O)CNC(=O)[C@@H](N)Cc1ccccc1)[C@@H](C)O)C(=O)N[C@@H](C)C(=O)N[C@@H](CC(N)=O)C(=O)N[C@@H](CCC(N)=O)C(=O)O [NOCICEPTIN] the Activity [2] was “Active” and the IC50 [8] was 0.52 nM.
